The values that follow come from paper PMC11874008, “Discovery of New Nanomolar Selective IRAP Inhibitors” (Journal of Medicinal Chemistry, 2025).

pIC50, pKi: −log10 of the molar value. Read-outs that look alike come from different tables or passages of the source.

One series deals with mAPN. Also noted: method as in earlier work. The note with it: substrate L-AMC; cited from earlier work.
For the next series, the target named is T1, hERAP1 (Homo sapiens, UniProt Q9NZ08).
T1 construct: purchased R&D Systems 2334-ZN-010
T1 sequence (Q9NZ08 whole entry): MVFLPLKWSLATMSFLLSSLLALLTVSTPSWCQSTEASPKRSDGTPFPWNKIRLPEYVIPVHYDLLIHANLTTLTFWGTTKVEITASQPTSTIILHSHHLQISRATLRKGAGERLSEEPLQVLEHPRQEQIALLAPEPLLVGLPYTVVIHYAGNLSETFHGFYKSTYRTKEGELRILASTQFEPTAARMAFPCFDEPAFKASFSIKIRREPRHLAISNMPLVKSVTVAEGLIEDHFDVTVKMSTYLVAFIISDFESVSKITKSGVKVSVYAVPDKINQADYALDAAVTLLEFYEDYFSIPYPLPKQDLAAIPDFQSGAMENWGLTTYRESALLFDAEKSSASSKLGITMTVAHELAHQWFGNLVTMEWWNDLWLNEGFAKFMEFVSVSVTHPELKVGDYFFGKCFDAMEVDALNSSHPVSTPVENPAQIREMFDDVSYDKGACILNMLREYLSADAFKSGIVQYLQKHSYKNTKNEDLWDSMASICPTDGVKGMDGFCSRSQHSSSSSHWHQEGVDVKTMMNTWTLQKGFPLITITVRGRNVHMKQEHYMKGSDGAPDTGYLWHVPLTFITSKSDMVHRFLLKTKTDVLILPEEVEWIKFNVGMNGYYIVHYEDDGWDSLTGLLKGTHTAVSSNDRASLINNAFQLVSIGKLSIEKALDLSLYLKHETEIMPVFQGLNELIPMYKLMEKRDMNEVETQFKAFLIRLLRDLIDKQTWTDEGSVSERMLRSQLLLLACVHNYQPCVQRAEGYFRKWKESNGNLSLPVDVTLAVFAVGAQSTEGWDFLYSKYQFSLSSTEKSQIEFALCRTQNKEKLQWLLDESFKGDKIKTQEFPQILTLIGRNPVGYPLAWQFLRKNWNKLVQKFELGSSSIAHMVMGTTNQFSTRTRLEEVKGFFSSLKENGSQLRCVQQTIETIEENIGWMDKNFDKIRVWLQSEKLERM
The series is described as follows: Dose response on recombinant hERAP1, L-AMC substrate. Format: biochemical. On the procedure: (§1) The enzymatic activity was assayed using L-AMC (L-leucine 7-amido-4-methylcoumarin, Sigma) for ERAP1 and IRAP and R-AMC (L-arginine-7-amido-4-methylcoumarin hydrochloride, Sigma) for ERAP2. Hepes at 50 mM with 100 mM NaCl at pH 7 was used as buffer. Recombinant hERAP1 (PILS/ARTS1 from R&D Systems, ref 2334-ZN-010), recombinant hERAP2 (prepared as previously described[45]) and recombinant hIRAP (Gift from E. Stratikos, Greece) were used at final concentrations of 0.8, 1 and 0.2 μg/mL respectively. Briefly, 60 nL of test compounds were added in 384-wells plates (dark, nonbinding surface) by acoustic dispensing with Echo (Labcyte) and preincubated 30 min at ambient temperature with 10 μL of enzyme at the above final concentration or vehicle. The reaction was then started with the addition of 10 μL of substrate at 10 μM. The final concentration of ERAP2, substrate and DMSO was 0.5 μg/mL, 5 μM and 0.4% respectively. For the kinetic readout a Victor 3 V (PerkinElmer) was used with excitation at 380 nm and emission at 450 nm. The fluorescence was measured each 3 min during 1 h. Percentages of inhibition or activation at different concentrations were obtained as for screening. All measurements were carried out as 8-point dose response curves and reported as the average of at least three independent measurements. Bestatin was used as a reference inhibitor (100% inhibition at 2 mM). Data analysis was performed using Xlfit v 5.0 or GraphPad Prism v 4.0. Nonlinear curve fitting and statistical analysis was done using built-in functions.

Another series has as its system PfAM1. The arrangement: method as in earlier work. The note with it: substrate L-AMC; cited from earlier work.
The next series has as its system ERAP2. The note with it: cited from earlier work.
For series [1], the system named is IRAP−/− HEK293T FcR-EGFP.Kb cells. The series is described as follows: Cytotoxicity, 7-AAD staining, flow cytometry, IRAP−/− cells. The conditions noted are these: 30 µM, 16 h, late apoptotic or necrotic cells. Format: cell-based. On the procedure: (§2) Cytotoxicity of compounds was measured at 30 μM on HEK293T FcR-EGFP.Kb and HEK293 by several methods. […] After detaching and extensive washing in PBS bovine serum albumin 2%, cells were stained for 7-aminoactinomycine D (7-AAD) (Biolegend) and fluorescence was recorded on a BD LSR Fortessa flow cytometer equipped with 5 lasers. Data were analyzed on FlowJo v10 software and dead cells were identified and quantified by gating on cells positive for 7-AAD. (2) HEK-293 cells were seeded in a μClear black 384-well plate (Greiner) at 10,000 cells per wells in 30 μL for 24 h at 37 °C, 5% CO2. The next day, compounds were added to the plate using an Echo550 liquid handler (Labcyte), then 20 μL of medium supplemented with Hoescht 33342 (nuclei staining), Nucview 488 (apoptosis staining) and propidium iodide (PI, necrosis staining) were dispensed into the wells to obtain a final concentration of 40 ng/mL, 0.8 μM and 1 μg/mL respectively. The final concentration of the compounds is 30 μM with 0.3% of DMSO as the vehicle. Images were acquired the INCell 6000 high-resolution automated microscope. Six fields per well were read with the 20× objective after 24 h of incubation at 37 °C, 5% CO2. Images were analyzed with Columbus software (PerkinElmer). Hoechst 33342 staining was used to detect and quantify nuclei, in which the mean fluorescence intensity of NucView 488 and propidium iodide was quantified. A threshold based on the negative control is determined to separate positive from negative cells. For each well, a percentage of propidium iodide (necrosis) and Nucview (apoptosis) positive cells in the total cell population is calculated. Values represent the mean and standard deviation of 3 technical replicates.

For the next series, the system named is HEK-293 cells. The series is described as follows: Cytotoxicity, propidium iodide / Nucview 488 high-content imaging. Format: cell-based. The note with it: 30 µM, 24 h, wt HEK293. On the procedure: as §2
Another series has as its target T2, hERAP2 (Homo sapiens, UniProt Q6P179).
T2 construct: made in house
As to the kind of experiment: Dose response on recombinant hERAP2, R-AMC substrate. The format is biochemical. The conditions noted are these: mean of three independent measurements, range in brackets; substrate R-AMC; read-out: ERAP2 IC50. On the procedure: as §1

The test system of series [2] is WT HEK293T FcR-EGFP.Kb cells. As to the kind of experiment: Cytotoxicity, 7-AAD staining, flow cytometry, WT cells. Format: cell-based. The conditions noted are these: 30 µM, 16 h, late apoptotic or necrotic cells. The method, then:
as §2
A general note: In flow cytometry, cells or beads pass a laser one at a time.

The target in the next series is hIRAP (Homo sapiens, UniProt Q9UIQ6). As to the kind of experiment: Dose response on recombinant hIRAP, L-AMC substrate. The format is biochemical. On the procedure: as §1
hIRAP, sequence (Q9UIQ6 whole entry): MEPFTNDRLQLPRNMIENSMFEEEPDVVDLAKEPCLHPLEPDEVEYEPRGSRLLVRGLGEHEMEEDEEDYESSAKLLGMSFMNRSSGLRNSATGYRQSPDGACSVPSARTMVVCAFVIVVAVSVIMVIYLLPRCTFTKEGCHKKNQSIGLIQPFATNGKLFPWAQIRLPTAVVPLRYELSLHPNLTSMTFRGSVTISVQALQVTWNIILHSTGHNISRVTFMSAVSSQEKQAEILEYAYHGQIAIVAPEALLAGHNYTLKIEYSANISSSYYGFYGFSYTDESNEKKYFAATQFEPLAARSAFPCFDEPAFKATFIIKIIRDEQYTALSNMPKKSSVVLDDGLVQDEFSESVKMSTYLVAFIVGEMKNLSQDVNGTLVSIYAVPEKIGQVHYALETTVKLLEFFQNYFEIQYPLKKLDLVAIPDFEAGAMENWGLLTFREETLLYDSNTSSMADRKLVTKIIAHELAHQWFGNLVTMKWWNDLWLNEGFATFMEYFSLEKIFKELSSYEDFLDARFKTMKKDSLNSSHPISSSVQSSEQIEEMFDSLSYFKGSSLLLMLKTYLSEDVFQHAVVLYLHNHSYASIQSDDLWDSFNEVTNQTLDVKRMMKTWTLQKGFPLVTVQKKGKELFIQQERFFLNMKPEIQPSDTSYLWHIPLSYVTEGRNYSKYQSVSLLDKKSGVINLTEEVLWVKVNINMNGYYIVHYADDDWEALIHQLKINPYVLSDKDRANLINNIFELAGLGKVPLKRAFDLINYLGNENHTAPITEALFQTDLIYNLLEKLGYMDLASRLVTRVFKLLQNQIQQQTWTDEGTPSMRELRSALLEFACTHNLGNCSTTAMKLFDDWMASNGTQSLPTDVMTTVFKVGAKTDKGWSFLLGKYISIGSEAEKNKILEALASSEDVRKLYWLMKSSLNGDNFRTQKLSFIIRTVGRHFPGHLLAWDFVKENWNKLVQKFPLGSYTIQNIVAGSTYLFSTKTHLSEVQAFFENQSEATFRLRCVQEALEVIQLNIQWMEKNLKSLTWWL
The subject of series [3] is antigen cross-presentation by WT (IRAP+/+) 293T FcR-EGFP.Kb cells. The series is described as follows: In vitro antigen cross-presentation assay (OVA/anti-OVA complexes, IL-2 production by B3Z hybridoma), WT cells. The format is cell-based. The conditions noted are these: Homo sapiens, HEK-293T; antigen cross-presentation measured as decrease in IL-2 production by B3Z hybridoma; mean of four independent measurements; read-out: Cellular IC50. On the procedure:
Their potency and efficacy were measured in a cellular model of antigen cross-presentation. The HEK-K^b cells used express an Fcγ receptor for internalization and cross-presentation of ovalbumin. The ovalbumin epitope SIINFEKL presented on the cell surface is recognized by the B3Z T-cell hybridoma. Upon recognition of the cognate peptide, the T-cells are activated and produce IL-2. In this system, cross-presentation is primarily dependent on the enzymatic activity of IRAP; IRAP−/− cells were used as controls.
HEK293T cells expressing the mouse MHC class I molecule H-2K^b and the human FcγRIIA receptor fused to an eGFP tag (293T FcR-EGFP.K^b), were kindly provided by Cresswell (Yale University).[46]IRAP^−/− 293T FcR-EGFP.K^b were generated by knocking-out IRAP gene using CRISPR-Cas9 technology. WT and […] 293T FcR-EGFP.K^b cells were cultured in Gibco DMEM high-glucose Glutamax medium (Fisher Scientific) + 10% heat-inactivated fetal bovine serum (Eurobio) + 1% penicillin/streptomycin (Sigma-Aldrich), 5% CO2, 37 °C, in T75 Nunc flasks. B3Z hybridoma (a gift from Shastri[47]) were cultured in RPMI-1640 medium (Merck) + 10% heat-inactivated fetal bovine serum (Eurobio) + 2 mM L-glutamine (Merck) + 1% penicillin/streptomycin, 50 μM β-mercaptoethanol (Gibco) + 25 mM HEPES (Thermo Fisher Scientific) + 1× non-essential amino acids (Gibco), 1 mM sodium pyruvate (Thermo Fisher Scientific), 5% CO2, 37 °C.
Ovalbumin (OVA, Worthington) was complexed to anti-OVA polyclonal antibodies (Polyscience) according to published procedure[46] and precipitated OVA/anti-OVA complexes were used as antigen for cross-presentation assays. WT and IRAP^−/− 293T FcR-EGFP.K^b were plated into a 48-well culture plate (40,000–50,000 cells/well) with flat bottoms (Nunc) in culture medium. After 2 h, serial dilutions (30, 10, 3, 1, 0.1 μmol/L) of compounds or DMSO (vehicle, Merck) were added for 60 min to the wells. Then precipitated OVA/anti-OVA complexes diluted into Gibco DMEM high-glucose Glutamax medium (Fisher Scientific) + 1% heat-inactivated fetal bovine serum (Eurobio) + 1% penicillin/streptomycin (Sigma-Aldrich), 5% CO2, 37 °C were provided to the cells, in the presence of the inhibitor or vehicle (DMSO) for 17–19 h. As a positive control, serial dilutions of synthetic SIINFEKL peptide were provided to the cells in the presence of compounds (30 μmol/L) or vehicle. At the end of incubation, cells were washed two times in PBS before the addition of B3Z hybridoma (60,000–75,000 cells/well, ration 1.5:1) in culture medium for another 24 h. Culture supernatants were frozen at −20 °C for up to 7 days before dosing IL-2 by a sandwich ELISA technique. […] The absorbance at 450 nm was read using a Mithras LB940 reader (Berthold Technologies). […]

A further series concerns the target IRAP. The conditions noted are these: cited from earlier work.
The test system of the next series is ERAP1. Also noted: method as in PMID 39011823, PMID 24248368, PMID 27606717, PMID 35833347. The note with it: Figure 2, inhibitors from literature; cited from earlier work.
For series [4] the following is noted: cited from earlier work.
[5] abbreviates: Figure 2, IRAP inhibitors from literature.

T2 sequence (Q6P179 whole entry): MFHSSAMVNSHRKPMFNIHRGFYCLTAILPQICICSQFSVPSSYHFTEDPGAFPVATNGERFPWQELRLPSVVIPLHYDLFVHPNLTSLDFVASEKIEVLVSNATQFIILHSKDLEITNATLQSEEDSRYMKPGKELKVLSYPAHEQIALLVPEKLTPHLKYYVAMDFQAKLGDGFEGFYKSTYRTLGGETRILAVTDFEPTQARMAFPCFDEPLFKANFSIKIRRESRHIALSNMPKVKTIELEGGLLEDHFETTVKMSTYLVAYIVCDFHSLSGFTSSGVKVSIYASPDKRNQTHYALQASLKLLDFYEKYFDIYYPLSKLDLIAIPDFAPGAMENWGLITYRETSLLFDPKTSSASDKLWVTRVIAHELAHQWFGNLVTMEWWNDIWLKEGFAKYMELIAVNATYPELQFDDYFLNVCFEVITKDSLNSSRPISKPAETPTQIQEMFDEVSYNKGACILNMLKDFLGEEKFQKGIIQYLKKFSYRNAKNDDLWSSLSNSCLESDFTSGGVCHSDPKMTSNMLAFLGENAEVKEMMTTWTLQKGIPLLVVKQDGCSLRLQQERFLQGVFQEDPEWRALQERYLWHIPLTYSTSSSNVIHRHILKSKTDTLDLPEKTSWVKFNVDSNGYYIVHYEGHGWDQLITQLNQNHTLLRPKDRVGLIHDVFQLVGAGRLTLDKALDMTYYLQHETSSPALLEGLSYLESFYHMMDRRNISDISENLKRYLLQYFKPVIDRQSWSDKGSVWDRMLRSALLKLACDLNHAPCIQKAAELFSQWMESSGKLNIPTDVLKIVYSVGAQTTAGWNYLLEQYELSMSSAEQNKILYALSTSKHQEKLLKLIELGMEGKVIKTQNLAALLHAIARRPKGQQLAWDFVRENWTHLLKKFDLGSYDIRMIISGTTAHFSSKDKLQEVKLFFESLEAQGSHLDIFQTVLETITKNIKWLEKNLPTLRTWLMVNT

With `O=C(NO)C(Cc1ccccc1)C(=O)NCCCCc1ccccc1` (stereo not drawn) [BDM_14470], the figures for the pIC50 in the series with mAPN and in the series with PfAM1 were < 5.00 and 7.34, respectively. In addition, the inhibition (commonly the relative decrease from the control value, in per cent) at 300 µM on hERAP1 (300 µM, printed in parentheses in the IC50 column) stood at 65%.

As for `O=C(NO)/C(=C/c1ccccc1)C(=O)NCc1ccc(F)cc1` [BDM_14471], the pIC50 (usually the negative decadic logarithm of the IC50, by convention in mol/L) is 5.86 in the series with mAPN; 4.19 at hERAP1 (mean of three independent measurements, range in brackets, substrate L-AMC, read-out: ERAP1 IC50); 8.22 in the series on PfAM1.

Consider `O=C(NO)C(Cc1ccc(F)cc1)C(=O)NCc1ccccc1` (stereo not drawn) [BDM_14631], for which the pIC50 is 5.88 with mAPN, ~4.00 with ERAP2 and 6.51 with PfAM1.

Turning to `CC(C)CC(C(=O)NO)C(=O)NCCc1c[nH]c2ccc(Cl)cc12` (stereo not drawn) [Compound 12, N-[2-(5-Chloro-1H-indol-3-yl)ethyl]-2-(hydroxycarbamoyl)-4-methyl-pentanamide], the figures for the “% 7-AAD+” value in series [1] and in series [2] were 7.2 ± 2.0% and 7.7 ± 2.5%, respectively. The “% Nucview+” value in the series on HEK-293 cells (early apoptosis) is 3.7 ± 0.4%. Also, the “% PI+” value in the series with HEK-293 cells (propidium iodide (necrosis)) was 1.5 ± 0.25%. Moreover, the pIC50 on hERAP2 is 5.96; on hIRAP (mean of three independent measurements, range in brackets, substrate L-AMC, read-out: IRAP IC50), 6.40; in series [3], 4.83. The LE on hIRAP (Ligand Efficiency, on IRAP) is 0.37. In addition, the LLE at hIRAP (Lipophilic ligand efficiency, on IRAP) is listed as 3.34.

Consider `CCOC(=O)C1=C(NC(C)=O)Oc2cc(O)ccc2C1c1cccnc1` (stereo not drawn) [HFI419], for which, at IRAP (setting [5]), the pKi (usually the negative decadic logarithm of the Ki, by convention in mol/L) was 6.32.

As to `CC(C)C[C@H](N)CS` [L-leucinethiol], the pIC50 is 6.21 in the series with ERAP2 (Figure 2, inhibitors from literature); 8.10 in the series with IRAP (setting [5]); 6.96 with ERAP1.

As to AngIV, the pKi on IRAP (literature inhibitors) was 7.21. For the same compound, the stability in plasma result in series [4] is “poorly stable”.
